Results from US9802929B2, “Benzo five-membered nitrogen heterocyclic piperidine or piperazine derivatives and preparation methods and pharmaceutical compositions thereof” (Shenyang Haiwang Biotechnology Co., Ltd., priority 2012, dated 2017).

Assays:
[1] = system: In-Vitro Vascular Smooth Muscle of Rabbits; assay: Relaxant effect on in vitro rabbit vascular smooth muscle contraction induced by hyperkalemia solution; settings: for EC50: Oryctolagus cuniculus; for relaxant effect against hyperkalemia solution contraction (in words): rabbit vascular smooth muscle
[2] = system: Ca^2+ channel; assay: Antagonism of CaCl2 cumulative contraction of rabbit aorta, pA2; settings: CaCl2 cumulative contraction after Ca-free hyperkalemia depolarization
Excerpt: Calcium-free K—H solution: Remove CaCl2 from K—H solution, add an equal number of moles of KCl, and add EDTA^−2Na^+ 0.1 mmol/L, while the other components remain unchanged.
Calcium-free hyperkalemia solution: Remove CaCl2 from hyperkalemia solution, add an equal number of moles of KCl, and add EDTA^−2Na^+ 0.1 mmol/L, while the other components remain unchanged.
(§1) Cut the chest open quickly after stunning, strip out the descending aorta, then after removing the surrounding connective tissue and adipose tissue (if performed serotonin receptor antagonist experiments, endothelial cells should be removed using a smooth stainless steel bars), cut the vessels into 3-5 mm vascular ring, then pass the steel hook through the blood vessel ring, with one end is fixed to the vent hook and the other end connected to the tension transducer, then place the specimens into bath tube containing 20 mL of nutrient solution, and record tension change by tension transducer. Maintain tube temperature at 37±0.5° C., and pass bubbles (95% O2+5% CO2) into the solution as a speed of 1-2 bubbles/minute. Place an initial load of 1.5 g on the rings, and change nutrient every 20 minutes, then balance for 2 hours and start test after baseline readings are stabilized.
After the tension is stabilized, wash the specimen three times and incubate with Ca-free K—H solution for 40 minutes; depolarize with Ca-free hyperkalemia solution for 20 minutes, and then add CaCl2 (10^−6-10^−2 mol/L) to the tube until a maximum response is achieved, and then record the curve. Then wash with K—H solution repeatedly, and replace with fresh K—H solution every 20 minutes; after balancing for 60 minutes and the baseline values are stabilized, wash the specimen again three times, and incubate with Ca-free K—H solution for 40 minutes; depolarize with Ca-free hyperkalemia solution for 20 minutes, and then add compound II-36 (3×10^−6 mol/L) to the tube, and incubate for 20 minutes; then add CaCl2 (10^−6-10^−2 mol/L) until a maximum response is achieved, and then record the curve. Mark CaCl2 contraction as ordinate using maximum response as 100% base. […] PA2 value of compound II-36 is 5.61±0.04 against CaCl2 contraction effect on rabbit aorta.
After the tension is stabilized, wash the specimen three times and incubate with Ca-free K—H solution for 40 minutes; depolarize with Ca-free hyperkalemia solution for 20 minutes, and then add CaCl2 (10^−6-10^−2 mol/L) to the tube until a maximum response is achieved, and then record the curve. […]

[3] = system: In Vitro Vascular Smooth Muscle of Rabbits; assay: Relaxant effect on in vitro rabbit vascular smooth muscle contraction induced by adrenaline (AD); settings: for EC50: Oryctolagus cuniculus; for relaxant effect against AD contraction (in words): rabbit vascular smooth muscle, AD 10^−5 mol/L
Excerpt: Krebs-Henseleit (K—H) physiological solution: NaCl 6.92 (concentration units), KCl 0.35, MgSO4 0.29, KH2PO4 0.16, CaCl2 0.28, NaHCO3 2.1, glucose 2.0 (g/L), pH 7.2.
Preparation of compound II-1 to II-87 solutions: Weigh a certain quality compound samples and dilute to concentrations (10^−10˜10^−3 mol/L) with distilled water, standby.
as §1
After tension readings are stabilized, record a certain length of tension curve, and add spasmogens agent AD (10^−5 mol/L) to induce contraction; if a maximum contract is achieved, wash the specimens thoroughly, and change K—H solution every 20 minutes, and then balance for 60 minutes; after baseline readings are stabilized, induce contract with spasmogens agent again. When the maximum contract in the later induction is consistent with the former induction, add compound II-1 to II-34 solutions (1×10^−10 to 1×10^−3 mol/L), II-35 to II-87 solutions (1×10^−8-1×10^−3 mol/L), and record the curves. Draw a dose-response curve using maximum relaxation response as 100%, relaxation percentage as ordinate and negative logarithms of the each concentration as abscissa.

[4] = relaxation of rabbit aortic rings contracted by hyperkalemia solution (K+ 60 mmol/L)
[5] = relaxation of rabbit aortic rings contracted by AD (10^−5 mol/L)

SMILES	EC50 [1, 4] [µM]	PA2 value against CaCl2 contraction [2]	EC50 [3, 5] [µM]	relaxant effect against AD contraction (in words) [3]	relaxant effect against hyperkalemia solution contraction (in words) [1]	−logEC50 [1, 4]	−logEC50 [3, 5]
c1ccc2c(c1)nnn2CCCCN1CCN(c2nsc3ccccc23)CC1 [Compound II-68, 3-(4-(4-(1H-benzotriazol-1-yl)butyl)piperazin-1-yl)benzisothiazole]	17	5.36±0.26	0.00851	most significant relaxation effects			
FC(F)(F)c1cccc(N2CCN(CCCCn3nnc4ccccc43)CC2)c1 [Compound II-65, 1-(4-(4-(3-trifluoromethylphenyl)piperazin-1-yl)butyl)-1H-benzotriazole]		6.56±0.032		most significant relaxation effects	relatively significant relaxant effect	5.55 ± 0.03	6.19 ± 0.03
FC(F)(F)c1cccc(N2CCN(CCCCn3cnc4ccccc43)CC2)c1 [Compound II-36, 1-(4-(4-(3-trifluoromethylphenyl)piperazin-1-yl)butyl)-1H-benzimidazole]	4.57	5.61±0.04	1.86	most significant relaxation effects	significant relaxant effect		
